# Laboratory results as given in PMC11667226 (Theranostics, 2025).
# Non-standard residues stand in square brackets, D forms with d. Residues, ends and D or L forms follow the SMILES beside them. *: point of attachment. X1 = CC1(C)C(=CC=CC=CC=CC2=[N+](CCCCCC(=O)*)c3ccc4ccccc4c3C2(C)C)N(CCCCS(=O)(=O)[O-])c2ccc3ccccc3c21; Cha = N[C@@H](CC1CCCCC1)C(=O)O
# Experiments:
# [1] = molecular target: T1, uPAR (Homo sapiens, UniProt Q03405); assay: Morphological co-localization between FG001 signal, tumor tissue and uPAR expression (Typhoon/Odyssey scan, IHC, H&E)
# T1 construct: from tissue
# Description: For 5 out of the 16 patients, the resected tumor specimens were cut in half, sliced at the OR, and imaged with the Elevision® imaging system. The specimens underwent routine pathologic processing at the Department of Pathology. The slices were frozen with a Milestone PrestoCHILL cryoembedder/freezer and, cut into 8 µm tissue slices with a Leica® CM1860 Cryostat and placed on glass slides. To evaluate the overlap between fluorescence signal from FG001, uPAR-expression, and tumor tissue, the cryosections were first fluorescently scanned with an Amersham Typhoon^TM scanner from Cytiva and, thereafter, stained using immunohistochemistry for uPAR and Cytokeratin (CK), and hematoxylin and eosin (H&E) stained. The Typhoon^TM scanner settings were PMT: 350-500 V and excitation wavelength: 785 nm. The immunohistochemical staining for uPAR was performed with the antibody GTX100467 (Gentex, USA), and Cytokeratin with M351529-2 Dako (Agilent). The H&E stain was performed according to standard practice. All tissue slides were scanned with the high-resolution AxioScan 7 (Zeiss, Germany). […]
# The different stained tissue sections were aligned using the BigWarp plugin in Fiji (NIH, open-source version: 1.54f) software. A pathologist delineated the tumors, and the fluorescence imaging generated from the Typhoon scanner was overlayed on the HE stains using ImageJ (NIH, open source), (see Figure 3M).
# [2] = tested on: oral and oropharyngeal squamous cell carcinoma (OSCC, OPSCC); assay: Longitudinal preoperative transoral imaging of the tumors; format: in vivo, human
# Description: For 3 out of the 16 patients, longitudinal preoperative imaging of their tumors was captured during the period before surgery. […] Minor deviations from the protocol requirements were due to prioritization of the patients' night sleep before surgery - therefore, no images were taken in the timespan between 8 and 14 hrs post-injection. All longitudinal images were captured with the same camera-to-tumor distance (app. 25-35 cm) in a darkened room. The TBR value was calculated for all time points and plotted as a function of time, see Figure 4 for a case example.
# T1 sequence (Q03405 23-335): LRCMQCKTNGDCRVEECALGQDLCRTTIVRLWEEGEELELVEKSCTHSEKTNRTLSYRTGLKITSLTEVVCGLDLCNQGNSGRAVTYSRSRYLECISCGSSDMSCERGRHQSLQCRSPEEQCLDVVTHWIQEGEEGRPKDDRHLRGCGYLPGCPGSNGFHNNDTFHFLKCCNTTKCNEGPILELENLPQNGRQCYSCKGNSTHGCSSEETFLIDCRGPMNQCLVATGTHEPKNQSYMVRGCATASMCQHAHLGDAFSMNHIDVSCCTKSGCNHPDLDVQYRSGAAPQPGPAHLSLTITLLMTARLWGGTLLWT
compound,measurement,setting,value
"CC(C)C[C@H](NC(=O)[C@H](Cc1ccc(O)cc1)NC(=O)[C@@H](CCCNC(=N)N)NC(=O)[C@@H](CO)NC(=O)[C@H](Cc1ccccc1)NC(=O)[C@H](CC1CCCCC1)NC(=O)[C@H](CC(=O)O)NC(=O)[C@H](CCC(=O)O)NC(=O)[C@H](CCC(=O)O)NC(=O)CCCCC[N+]1=C(C=CC=CC=CC=C2N(CCCCS(=O)(=O)[O-])c3ccc4ccccc4c3C2(C)C)C(C)(C)c2c1ccc1ccccc21)C(=O)N[C@@H](Cc1c[nH]c2ccccc12)C(=O)N[C@@H](CO)C(=O)O [FG001, ICG-Glu-Glu-AE105] (X1-EED[Cha]F[dS][dR]YLWS-OH; N-terminus and C-terminus assumed)",Optical signal in resected cancer tissues after formalin fixation and paraffin embedding,[1]; days following surgery,preserved
same,Co-localization between uPAR-expression and FG001 fluorescence signal,"[1]; microscopic fluorescence imaging, tumor cross-sections of 5 patients across the 3 dose cohorts",high level of co-localization
same,Time post-injection after which tumor-specific signals could be detected,"[2]; FG001 16 mg i.v., three awake patients, transoral",2 h
same,TBR in longitudinal imaging,"[2]; FG001 16 mg i.v., three awake patients, transoral, from 2 hrs until 19 hrs post-injection",above 2
same,Window for drug administration prior to surgery,[2]; indicated by the longitudinal data for tumor imaging,2 to 19 h
